Tests used:
[1] = test system: Staphylococcus aureus; assay: MIC by microdilution in TSB broth; assay type: cell-based; conditions: S. aureus, 37°C, 20 h
Experimental: (§1) Antibacterial activity was evaluated by measuring MIC (minimum inhibitory concentration) and MBC (minimum bactericidal concentration) values. The MIC value was measured by the microdilution method using TSB broth with 96 well plates ([Carlsen et al., 1981]) and the MBC value was determined by LB plates. In brief, the overnight cultured bacteria were 1: 1000 diluted with fresh medium to get a bacterial suspension. After incubation at 37°C for 20 h, the growth of bacteria is monitored by observing the turbidity of the culture. The bacterial solution was diluted as above method and the complexes were incubated with bacterial solution for 2 h. Then 100 μL bacterial solution was taken for plate coating. The Staphylococcus aureus growth inhibition trend in the presence of complexes was obtained. The MBC values of complexes were determined by LB plates after culturing in the same method for 24 h. All experiments were controlled with sterile water and repeated in parallel at least three times.

[2] = test system: Staphylococcus aureus; assay: MBC determined by LB plates; assay type: cell-based; conditions: S. aureus, 24 h
Experimental: as §1

[3] = test system: Staphylococcus aureus; assay: Nucleic acid leakage, 260 nm absorbing material; assay type: cell-based; conditions: 4 μg/ml, 2 h
Experimental: To verify the membrane damage, the loss of 260 nm absorbing material was carried out ([Yu et al., 2021]). Briefly, overnight cultured bacteria were diluted 1:1000 in fresh TSB and shaken at 37°C for about 5 h until the exponential stage was reached. The supernatant was removed by centrifugation, then the bacteria were resuspended to OD600 = 1 with PBS, which was further treated with Ru-3 or polymyxin B and centrifuged after 2 h to precipitate bacterial cells. Subsequently, the loss of 260 nm absorbing material, including the release of DNA and RNA in the filtrate, was measured at 260 nm.

[4] = test system: BALB/c mice; assay: Acute skin irritation test, H&E; assay type: in vivo; conditions: 0.05 and 0.1 mg ml^−1, once a day for 3 days, topical
Experimental: Female BALB/c mice were randomly divided into three groups, control group, Ru-3 (0.05 mg ml^−1) group and Ru-3 (0.1 mg ml^−1). The day before the experiment, the hair on the back of female mice was removed. The compound and distilled water control were gently attached to the shaving site (about 2 cm^2) once a day for 3 days. On the fourth day, the mice were killed by cervical dislocation. The skin tissue at the site of infections were taken out and fixed in 4% paraformaldehyde at 4°C for 1 day, then embedded in paraffin. Serial sections were prepared for H&E analysis.

[5] = test system: Staphylococcus aureus; assay: Membrane permeability, ONPG hydrolysis; assay type: cell-based; conditions: Ru-3 2 or 4 μg/ml vs vancomycin 2 μg/ml
Experimental: O-nitrobenzene-β-D-galactopyranoside (ONPG) was the substrate of intracellular ß-galactosidase, that was used to determine the permeability of Staphylococcus aureus cell membrane. Staphylococcus aureus was cultured to logarithmic phase, then washed and cultured in M9 lactose medium, in which lactose was used as the only carbon source of a single colony and stayed overnight at 37°C. After washing three times with PBS, the culture was diluted to OD600 = 0.3 (PBS). […] The hydrolysis of ONPG to o-nitrophenol over time was monitored by UV every 15 min at 415 nm. A similar procedure was used for untreated cells as control ([Xuan et al., 2021]).

Question: What does the source list for [Ru(dmb)2PMA] (PF6)2 [Ru-3]?
Answer: MIC [1]: 4 µg/mL; MBC [2]: 32 µg/mL; Δ% Nucleic acid leakage [3]: 20%; skin irritation, H&E pathological changes [4]: no obvious pathological abnormalities; plasma membrane permeability (ONPG) [5]: better membrane permeability

— article PMC9589286, “Ruthenium polypyridine complexes with triphenylamine groups as antibacterial agents against Staphylococcus aureus with membrane-disruptive mechanism” (Frontiers in Chemistry, 2022)
